Paper PMC9505425, “Targeting of the Mitochondrial TET1 Protein by Pyrrolo[3,2-b]pyrrole Chelators” (International Journal of Molecular Sciences, 2022)
Where “and” joins values, the source holds several entries; their conditions need not be identical. Equal entries are not always repeated.

Legend:
[1] = tested on: H-1299 cells; assay: MTT cytotoxicity assay, H-1299; format: cell-based, human
How it was run: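 Cells seeded at 1.0 × 10^5/well, grown 24 h, then exposed 48 h to compounds at 0.1–20 μM (≤1% DMSO); U118-MG in DMEM, H1299 in RPMI 1640, both with 10% FBS, 37 °C. MTT 2 h, formazan in DMSO read at 570 nm; IC50 relative to untreated cells (100%).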

[2] = tested on: Caov-3 cells; assay: MTT cytotoxicity assay, Caov-3; format: cell-based, human
How it was run: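 Caov-3 ovarian adenocarcinoma cells, grown for 24 h after plating, were exposed for 48 h to compound at 0.1–20 μM with at most 1% DMSO. Viability was measured by MTT reduction (2 h, A570) relative to untreated cells. IC50 was the concentration inhibiting 50% of cell growth.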

[3] = MTT cytotoxicity assay, HF-P4; format: cell-based, human; details: human, HF-P4 normal human dermal fibroblasts, repeats, read-out: Cell viability %
How it was run: (§1)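 Cells seeded at 1.0 × 10^5 per well, grown 24 h, then exposed 48 h to compounds at 0.1–20 μM (DMSO ≤1%). MTT added for 2 h, formazan dissolved in DMSO, absorbance read at 570 nm. IC50 calculated relative to untreated cells (100%).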

[4] = tested on: HF-P4 cells; assay: MTT cytotoxicity assay, HF-P4; format: cell-based, human; details: 48 h; for Cell viability %: repeats
How it was run: as §1

- melting point: 306 to 307 °C
Structure (SMILES): CCN(CC)c1ccc(/C=N/NC(=O)c2ccc(-c3cc4c(cc(-c5ccc(C(=O)N/N=C/c6ccc(N(CC)CC)cc6O)cc5)n4-c4ccc(C)cc4)n3-c3ccc(C)cc3)cc2)c(O)c1 [Compound 2]
- Cell viability % ([1]; H-1299, 100 nM, 48 h, repeats, 0.1 µM): 61.37% and 71.3%
- Cell viability % ([1]; H-1299, 500 nM, 48 h, repeats, 0.5 µM): 66.22% and 72.36%
- Cell viability % ([1]; H-1299, 750 nM, 48 h, repeats, 0.75 µM): 70.74% and 81.49%
- Cell viability % ([1]; H-1299, 1 uM, 48 h, repeats, 1 µM): 69.87% and 82.47%
- Cell viability % ([1]; H-1299, 2.5 uM, 48 h, repeats, 2.5 µM): 66.9068% and 60.82%
- Cell viability % ([1]; H-1299, 5 uM, 48 h, repeats, 5 µM): 53.26% and 57.69%
- Cell viability % ([1]; H-1299, 7.5 uM, 48 h, repeats, 7.5 µM): 36.17% and 50.75%
- Cell viability % ([1]; H-1299, 10 uM, 48 h, repeats, 10 µM): 38.48% and 47.35%
- Cell viability % ([1]; H-1299, 15 uM, 48 h, repeats, 15 µM): 39.64% and 37.79%
- Cell viability % ([1]; H-1299, 20 uM, 48 h, repeats, 20 µM): 32.04% and 28.82%
- viability at 0.1 µM ([1]; Homo sapiens, NCI-H1299, 48 h, H-1299, 100 nM, repeats, read-out: Cell viability %): 77.6%
- viability at 0.5 µM ([1]; Homo sapiens, NCI-H1299, 48 h, H-1299, 500 nM, repeats, read-out: Cell viability %): 71.5%
- viability at 0.75 µM ([1]; Homo sapiens, NCI-H1299, 48 h, H-1299, 750 nM, repeats, read-out: Cell viability %): 74.1%
- viability at 1 µM ([1]; Homo sapiens, NCI-H1299, 48 h, H-1299, 1 uM, repeats, read-out: Cell viability %): 72.4%
- viability at 2.5 µM ([1]; Homo sapiens, NCI-H1299, 48 h, H-1299, 2.5 uM, repeats, read-out: Cell viability %): 73.2%
- viability at 5 µM ([1]; Homo sapiens, NCI-H1299, 48 h, H-1299, 5 uM, repeats, read-out: Cell viability %): 53.2%
- viability at 7.5 µM ([1]; Homo sapiens, NCI-H1299, 48 h, H-1299, 7.5 uM, repeats, read-out: Cell viability %): 42.3%
- viability at 10 µM ([1]; Homo sapiens, NCI-H1299, 48 h, H-1299, 10 uM, repeats, read-out: Cell viability %): 45.5%
- viability at 15 µM ([1]; Homo sapiens, NCI-H1299, 48 h, H-1299, 15 uM, repeats, read-out: Cell viability %): 39.8%
- viability at 20 µM ([1]; Homo sapiens, NCI-H1299, 48 h, H-1299, 20 uM, repeats, read-out: Cell viability %): 28.6%
- IC50 ([1]; Homo sapiens, NCI-H1299, MTT, 48 h): 8.94 µM
- Cell viability % ([2]; Caov-3, 100 nM, 48 h, repeats, 0.1 µM): 105.779% and 93.87%
- Cell viability % ([2]; Caov-3, 500 nM, 48 h, repeats, 0.5 µM): 78.8105% and 77.85%
- Cell viability % ([2]; Caov-3, 750 nM, 48 h, repeats, 0.75 µM): 73.37% and 52.9% and 76.29%
- Cell viability % ([2]; Caov-3, 1 uM, 48 h, repeats, 1 µM): 78.5% and 67.16% and 48.54%
- Cell viability % ([2]; Caov-3, 2.5 uM, 48 h, repeats, 2.5 µM): 64.6096% and 82.47% and 61.81%
- Cell viability % ([2]; Caov-3, 5 uM, 48 h, repeats, 5 µM): 59.21% and 86.03% and 70.4727%
- Cell viability % ([2]; Caov-3, 7.5 uM, 48 h, repeats, 7.5 µM): 79.2% and 67.97%
- Cell viability % ([2]; Caov-3, 10 uM, 48 h, repeats, 10 µM): 51.36% and 52.95%
- Cell viability % ([2]; Caov-3, 15 uM, 48 h, repeats, 15 µM): 50.9752% and 42.33%
- Cell viability % ([2]; Caov-3, 20 uM, 48 h, repeats, 20 µM): 25.3% and 23.25%
- viability at 0.1 µM ([2]; Homo sapiens, Caov-3, 48 h, Caov-3, 100 nM, repeats, read-out: Cell viability %): 95.3%
- viability at 0.5 µM ([2]; Homo sapiens, Caov-3, 48 h, Caov-3, 500 nM, repeats, read-out: Cell viability %): 76.2%
- viability at 7.5 µM ([2]; Homo sapiens, Caov-3, 48 h, Caov-3, 7.5 uM, repeats, read-out: Cell viability %): 73.3%
- viability at 10 µM ([2]; Homo sapiens, Caov-3, 48 h, Caov-3, 10 uM, repeats, read-out: Cell viability %): 52.1%
- viability at 15 µM ([2]; Homo sapiens, Caov-3, 48 h, Caov-3, 15 uM, repeats, read-out: Cell viability %): 42.8%
- viability at 20 µM ([2]; Homo sapiens, Caov-3, 48 h, Caov-3, 20 uM, repeats, read-out: Cell viability %): 28.4%
- IC50 ([2]; Homo sapiens, Caov-3, MTT, 48 h): 13.3 µM
- viability at 48 h, 0.5 µM ([3]; HF-P4, 500 nM): 120%
- viability at 48 h, 0.75 µM ([3]; HF-P4, 750 nM): 100%
- viability at 48 h, 1 µM ([3]; HF-P4, 1 uM): 107%
- viability at 48 h, 5 µM ([3]; HF-P4, 5 uM): 104%
- viability at 48 h, 7.5 µM ([3]; HF-P4, 7.5 uM): 84.4%
- viability at 48 h, 10 µM ([3]; HF-P4, 10 uM): 83.1%
- viability at 48 h, 15 µM ([3]; HF-P4, 15 uM): 69.4%
- viability at 48 h, 20 µM ([3]; HF-P4, 20 uM): 60.3%
- Cell viability % ([4]; HF-P4, 100 nM, 0.1 µM): 112.667% and 100.0956% and 124.6811%
- Cell viability % ([4]; HF-P4, 500 nM, 0.5 µM): 121.1654% and 117.1851%
- Cell viability % ([4]; HF-P4, 750 nM, 0.75 µM): 106.3799% and 108.6149%
- Cell viability % ([4]; HF-P4, 1 uM, 1 µM): 107.7419% and 92.48%
- Cell viability % ([4]; HF-P4, 2.5 uM, 2.5 µM): 91.9392% and 112.4492% and 91.41%
- Cell viability % ([4]; HF-P4, 5 uM, 5 µM): 91.3% and 88.77%
- Cell viability % ([4]; HF-P4, 7.5 uM, 7.5 µM): 87.79% and 98.14%
- Cell viability % ([4]; HF-P4, 10 uM, 10 µM): 82.92% and 77.13%
- Cell viability % ([4]; HF-P4, 15 uM, 15 µM): 82.13% and 69.58%
- Cell viability % ([4]; HF-P4, 20 uM, 20 µM): 51.8655% and 56.81%
- IC50 ([4]; Homo sapiens, MTT): > 20 µM
